The results in this text go back to the NIST ThermoML archive (doi:10.1021/je049878m).

± gives the expanded uncertainty stated by the source.

The conditions of this data set: Crystal.

Take `CC(=O)Nc1ccc(C)cc1` [1-acetamido-4-methylbenzene]: the Normal melting temperature stood at 151 ± 1 °C.
With `COc1cc(OC)c(C(=O)O)cc1OC` [2,4,5-trimethoxybenzoic acid] the figure was 144.8 ± 1 °C; with `Nc1ccccc1O` [2-hydroxybenzenamine], 174.5 ± 1 °C; with `COc1cc(C(=O)O)cc(OC)c1OC` [3,4,5-trimethoxybenzoic acid], 171.4 ± 1 °C.
For the molecule `Nc1cccc(O)c1` [3-hydroxybenzenamine], the Normal melting temperature is 123.7 ± 1 °C.
For `CC(=O)Nc1ccccc1C` [o-acetotoluide], the Normal melting temperature turned out to be 109.6 ± 1 °C.
